Experiments:
Assay in all cases: relative viability (nuclei count vs DMSO), 5 days (fraction); higher = more cells survive
NCI-H23 = tested on: NCI-H23
Outline: (§1)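 Lung cancer cell lines in 1536-well plates were dosed by pin tool the day after seeding, either with one drug alone or with a fixed anchor-drug dose plus five library-drug doses (not always all listed) in √10 steps. After 5 days, cells were fixed and their nuclei stained in one step (final 0.05% Triton X-100, 1% formaldehyde, 1 ug/ml Hoechst), then counted on 4× images. Relative viability is the nuclei count in treated wells divided by that in vehicle wells. Values are medians of duplicate plates.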

NCI-H596 = tested on: NCI-H596
Outline: as §1

NCI-H1648 = tested on: NCI-H1648
Outline: as §1

NCI-H322M = tested on: NCI-H322M
Outline: as §1

NCI-H1993 = tested on: NCI-H1993
Outline: as §1

NCI-H1703 = tested on: NCI-H1703
Outline: as §1

NCI-H1355 = tested on: NCI-H1355
Outline: as §1

LCLC-97TM1 = tested on: LCLC-97TM1
Outline: as §1

UMC-11 = tested on: UMC-11
Outline: as §1

IA-LM = tested on: IA-LM
Outline: as §1

`O=c1cc(N2CCOCC2)oc2c(-c3cccc4c3sc3ccccc34)cccc12` + NC(=O)Nc1cc(-c2cccc(F)c2)sc1C(=O)N[C@H]1CCCNC1 [AZD7762] (partner 0.2 µM) showed a relative viability (NCI-H23; first compound 0.01 µM) of 0.306, a relative viability (NCI-H23; first compound 0.03162 µM) of 0.309 and a relative viability (NCI-H23; first compound 0.3162 µM) of 0.307. It also gave a relative viability (NCI-H23; first compound 1 µM) of 0.272, a relative viability (NCI-H596; first compound 0.01 µM) of 1.19 and a relative viability (NCI-H596; first compound 0.03162 µM) of 1.2. The relative viability (NCI-H596; first compound 0.1 µM) was 0.75, the relative viability (NCI-H596; first compound 0.3162 µM) was 1.18 and the relative viability (NCI-H596; first compound 1 µM) was 1.08. It also gave a relative viability (NCI-H1648; first compound 0.03162 µM) of 0.889, a relative viability (NCI-H1648; first compound 0.1 µM) of 0.714 and a relative viability (NCI-H1648; first compound 0.3162 µM) of 0.609. The relative viability (NCI-H1648; first compound 1 µM) was 0.746, the relative viability (NCI-H322M; first compound 0.01 µM) was 0.578 and the relative viability (NCI-H322M; first compound 0.03162 µM) was 0.589. It also gave a relative viability (NCI-H322M; first compound 0.3162 µM) of 0.595, a relative viability (NCI-H322M; first compound 1 µM) of 0.581 and a relative viability (NCI-H1993; first compound 0.01 µM) of 0.832. It also gave a relative viability (NCI-H1993; first compound 0.03162 µM) of 0.764, a relative viability (NCI-H1993; first compound 0.1 µM) of 0.779 and a relative viability (NCI-H1993; first compound 0.3162 µM) of 0.692. It also gave a relative viability (NCI-H1993; first compound 1 µM) of 0.715, a relative viability (NCI-H1703; first compound 0.01 µM) of 0.143 and a relative viability (NCI-H1703; first compound 0.03162 µM) of 0.137. For the same compound, the relative viability (NCI-H1703; first compound 0.3162 µM) was 0.146, the relative viability (NCI-H1703; first compound 1 µM) was 0.131 and the relative viability (NCI-H1355; first compound 0.01 µM) was 0.726. For the same compound, the relative viability (NCI-H1355; first compound 0.03162 µM) was 0.676, the relative viability (NCI-H1355; first compound 0.1 µM) was 0.255 and the relative viability (NCI-H1355; first compound 0.3162 µM) was 0.903. It also gave a relative viability (NCI-H1355; first compound 1 µM) of 0.72, a relative viability (LCLC-97TM1; first compound 0.01 µM) of 0.215 and a relative viability (LCLC-97TM1; first compound 0.03162 µM) of 0.353. It also gave a relative viability (LCLC-97TM1; first compound 0.1 µM) of 0.0724, a relative viability (LCLC-97TM1; first compound 0.3162 µM) of 0.349 and a relative viability (LCLC-97TM1; first compound 1 µM) of 0.22.
Compound `COc1nc(C)cnc1NS(=O)(=O)c1cccnc1-c1ccc(-c2nnco2)cc1` [Zibotentan] + NC(=O)Nc1cc(-c2cccc(F)c2)sc1C(=O)N[C@H]1CCCNC1 [AZD7762] (partner 0.2 µM) has a relative viability (NCI-H23; first compound 0.08 µM) of 0.224, a relative viability (NCI-H23; first compound 0.253 µM) of 0.238 and a relative viability (NCI-H23; first compound 0.8 µM) of 0.196. It also gave a relative viability (NCI-H23; first compound 2.53 µM) of 0.26, a relative viability (NCI-H596; first compound 0.08 µM) of 1.13 and a relative viability (NCI-H596; first compound 0.253 µM) of 1.01. It also gave a relative viability (NCI-H596; first compound 0.8 µM) of 1.06, a relative viability (NCI-H596; first compound 2.53 µM) of 1.22 and a relative viability (NCI-H1648; first compound 0.08 µM) of 0.637. The relative viability (NCI-H1648; first compound 0.253 µM) was 0.596, the relative viability (NCI-H1648; first compound 0.8 µM) was 0.596 and the relative viability (NCI-H1648; first compound 2.53 µM) was 0.63. The relative viability (NCI-H322M; first compound 0.08 µM) was 0.605, the relative viability (NCI-H322M; first compound 0.253 µM) was 0.551 and the relative viability (NCI-H322M; first compound 0.8 µM) was 0.364. For the same compound, the relative viability (NCI-H322M; first compound 2.53 µM) was 0.605, the relative viability (NCI-H1993; first compound 0.08 µM) was 0.667 and the relative viability (NCI-H1993; first compound 0.253 µM) was 0.778. It also gave a relative viability (NCI-H1993; first compound 0.8 µM) of 0.728, a relative viability (NCI-H1993; first compound 2.53 µM) of 0.881 and a relative viability (NCI-H1703; first compound 0.08 µM) of 0.139. It also gave a relative viability (NCI-H1703; first compound 0.253 µM) of 0.114, a relative viability (NCI-H1703; first compound 0.8 µM) of 0.108 and a relative viability (NCI-H1703; first compound 2.53 µM) of 0.121. For the same compound, the relative viability (NCI-H1355; first compound 0.08 µM) was 0.81, the relative viability (NCI-H1355; first compound 0.253 µM) was 0.858 and the relative viability (NCI-H1355; first compound 0.8 µM) was 0.432. For the same compound, the relative viability (NCI-H1355; first compound 2.53 µM) was 0.774, the relative viability (LCLC-97TM1; first compound 0.08 µM) was 0.433 and the relative viability (LCLC-97TM1; first compound 0.253 µM) was 0.165. The relative viability (LCLC-97TM1; first compound 0.8 µM) was 0.12 and the relative viability (LCLC-97TM1; first compound 2.53 µM) was 0.253.
In the case of `CCN(CC)CCCCNc1ncc2cc(-c3cc(OC)cc(OC)c3)c(NC(=O)NC(C)(C)C)nc2n1` + O=C(CCCCCCC(=O)Nc1ccccc1)NO [Vorinostat] (partner 1 µM), the relative viability (UMC-11; first compound 0.01 µM) is reported as 0.4, the relative viability (UMC-11; first compound 0.03162 µM) is reported as 0.36 and the relative viability (UMC-11; first compound 0.1 µM) is reported as 0.361. For the same compound, the relative viability (UMC-11; first compound 0.3162 µM) was 0.394, the relative viability (UMC-11; first compound 1 µM) was 0.311 and the relative viability (NCI-H23; first compound 0.01 µM) was 0.615. For the same compound, the relative viability (NCI-H23; first compound 0.03162 µM) was 0.711, the relative viability (NCI-H23; first compound 0.1 µM) was 0.715 and the relative viability (NCI-H23; first compound 0.3162 µM) was 0.467. The relative viability (NCI-H23; first compound 1 µM) was 0.581, the relative viability (NCI-H596; first compound 0.01 µM) was 0.658 and the relative viability (NCI-H596; first compound 0.03162 µM) was 0.699. It also gave a relative viability (NCI-H596; first compound 0.1 µM) of 0.597, a relative viability (NCI-H596; first compound 0.3162 µM) of 0.625 and a relative viability (NCI-H596; first compound 1 µM) of 0.579. For the same compound, the relative viability (IA-LM; first compound 0.01 µM) was 0.963, the relative viability (IA-LM; first compound 0.03162 µM) was 0.836 and the relative viability (IA-LM; first compound 0.1 µM) was 0.852. For the same compound, the relative viability (IA-LM; first compound 0.3162 µM) was 1.26, the relative viability (IA-LM; first compound 1 µM) was 0.979 and the relative viability (NCI-H1648; first compound 0.01 µM) was 0.48. The relative viability (NCI-H1648; first compound 0.03162 µM) was 0.352, the relative viability (NCI-H1648; first compound 0.1 µM) was 0.666 and the relative viability (NCI-H1648; first compound 0.3162 µM) was 0.602. For the same compound, the relative viability (NCI-H1648; first compound 1 µM) was 0.327, the relative viability (NCI-H322M; first compound 0.01 µM) was 0.787 and the relative viability (NCI-H322M; first compound 0.03162 µM) was 0.911. The relative viability (NCI-H322M; first compound 0.1 µM) was 0.934, the relative viability (NCI-H322M; first compound 0.3162 µM) was 0.966 and the relative viability (NCI-H322M; first compound 1 µM) was 0.872. For the same compound, the relative viability (NCI-H1993; first compound 0.01 µM) was 0.776, the relative viability (NCI-H1993; first compound 0.03162 µM) was 0.726 and the relative viability (NCI-H1993; first compound 0.1 µM) was 0.899. The relative viability (NCI-H1993; first compound 0.3162 µM) was 0.882, the relative viability (NCI-H1993; first compound 1 µM) was 0.695 and the relative viability (NCI-H1355; first compound 0.01 µM) was 0.647. The relative viability (NCI-H1355; first compound 0.03162 µM) was 0.654, the relative viability (NCI-H1355; first compound 0.1 µM) was 0.67 and the relative viability (NCI-H1355; first compound 0.3162 µM) was 0.657. The relative viability (NCI-H1355; first compound 1 µM) was 0.616, the relative viability (LCLC-97TM1; first compound 0.01 µM) was 0.805 and the relative viability (LCLC-97TM1; first compound 0.03162 µM) was 0.779. It also gave a relative viability (LCLC-97TM1; first compound 0.1 µM) of 0.615, a relative viability (LCLC-97TM1; first compound 0.3162 µM) of 0.865 and a relative viability (LCLC-97TM1; first compound 1 µM) of 0.699.

— the supplement of paper PMC10307832
